Measured values as given in PubChem BioAssay (NCI).
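Method: 48-hour compound exposure of cells in 96-well plates, five concentrations, linear interpolation of endpoints. The concentration for full growth arrest is given as TGI.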

Legend:
Assay in all cases: NCI anticancer screen, dose series, 48 h
[1] = test system: SNB-19 CNS
[2] = test system: SK-MEL-5 melanoma
[3] = test system: 786-0 renal
[4] = test system: MDA-MB-231 breast
[5] = test system: MDA-N
[6] = test system: MOLT-4 leukemia
[7] = test system: HOP-62 NSCLC
[8] = test system: OVCAR-8 ovarian
[9] = test system: SR leukemia
[10] = test system: SK-MEL-2 melanoma
[11] = test system: RXF 393 renal
[12] = test system: HCC-2998 colon
[13] = test system: CAKI-1 renal
[14] = test system: NCI-H460 lung
[15] = test system: SK-OV-3 ovarian
[16] = test system: SF-539 CNS
[17] = test system: DU-145 prostate
[18] = test system: HOP-92 NSCLC

Structure (SMILES) | TGI [1] | TGI [2] | TGI [3] | TGI [4] | TGI [5] | TGI [6] | TGI [7] | TGI [8] | TGI [9] | TGI [10] | TGI [11] | TGI [12] | TGI [13] | TGI [14] | TGI [15] | TGI [16] | TGI [17] | TGI [18]
CC(=O)C(=[N+]=[N-])C(=O)N1CCOC1=O | > 10 µM | > 10 µM | > 10 µM | > 10 µM | > 10 µM | > 10 µM | > 10 µM | > 10 µM | > 10 µM | > 10 µM | > 10 µM | > 10 µM | > 10 µM | > 10 µM | > 10 µM | > 10 µM | > 10 µM | –
O=C(CC(=O)N1N=C(N2CCCCC2)CC1c1ccccc1)Nc1ccccc1 (stereo not drawn) | > 100 µM | > 100 µM | > 100 µM | > 100 µM | > 100 µM | > 100 µM | > 100 µM | > 100 µM | > 100 µM | > 100 µM | > 100 µM | > 100 µM | > 100 µM | > 100 µM | – | > 100 µM | > 100 µM | > 100 µM
COc1ccc(N=N/C(=N/NC(=O)c2ccc(C)cc2)c2ccc(N(CCC#N)CCC#N)cc2OC)cc1 | > 100 µM | > 100 µM | > 100 µM | > 100 µM | > 100 µM | > 100 µM | > 100 µM | > 100 µM | > 100 µM | > 100 µM | > 100 µM | > 100 µM | > 100 µM | > 100 µM | > 100 µM | – | > 100 µM | > 100 µM
O=C1NC(=O)C(F)(n2cc(F)c(=O)[nH]c2=O)C(O)N1 (stereo not drawn) | > 10 µM | > 10 µM | > 10 µM | > 10 µM | > 10 µM | > 10 µM | > 10 µM | > 10 µM | > 10 µM | > 10 µM | > 10 µM | > 10 µM | > 10 µM | > 10 µM | > 10 µM | > 10 µM | > 10 µM | > 10 µM
Cc1cc2c(c(C=Nc3ccccc3O)c1)OC1(C=C2)Oc2ccccc2C(=O)N1C (stereo not drawn) | > 100 µM | 36.4 µM | 37.5 µM | 37.5 µM | 77.3 µM | 51 µM | 66.3 µM | 43.6 µM | 48 µM | 50 µM | 37.2 µM | 29.2 µM | 42.2 µM | 30.6 µM | 58.4 µM | – | 39.9 µM | 32.2 µM
CC(C)OC(=O)c1ccc(CCC2=CC(=O)C=CC2=O)cc1 | 56.8 µM | 30 µM | 15.6 µM | 23.2 µM | 22.6 µM | 8.05 µM | 47.4 µM | 18.1 µM | > 25.3 µM | 43.1 µM | 25.1 µM | 32.6 µM | 4.26 µM | 54.1 µM | > 88.6 µM | 17.1 µM | 37 µM | 13.9 µM
CC(=O)Nc1ccc(NCC(=O)Nn2cnc3ccc(S(=O)(=O)Nc4ccc(NC(C)=O)cc4)cc3c2=O)cc1 | > 100 µM | – | > 100 µM | > 100 µM | > 100 µM | > 100 µM | > 100 µM | > 100 µM | > 100 µM | > 100 µM | – | > 100 µM | > 100 µM | > 100 µM | > 100 µM | > 100 µM | > 100 µM | > 100 µM
O=c1[nH]c(=O)n(COCc2ccccc2)c2ccsc12 | > 100 µM | > 100 µM | > 100 µM | > 100 µM | > 100 µM | > 100 µM | > 100 µM | > 100 µM | > 100 µM | > 100 µM | > 100 µM | > 100 µM | > 100 µM | > 100 µM | – | > 100 µM | > 100 µM | > 100 µM
N#Cc1nc(CCN2C(=O)c3ccccc3C2=O)oc1N | > 100 µM | > 100 µM | > 100 µM | > 100 µM | > 100 µM | > 100 µM | > 100 µM | > 100 µM | > 100 µM | > 100 µM | > 100 µM | > 100 µM | > 100 µM | > 100 µM | > 100 µM | > 100 µM | > 100 µM | –
CC(=O)Nc1c(S(=O)(=O)c2ccccc2)c(C)c(C)n1CCN(C)C | > 100 µM | > 100 µM | > 100 µM | > 100 µM | > 100 µM | > 100 µM | – | > 100 µM | > 100 µM | > 100 µM | > 100 µM | > 100 µM | > 100 µM | > 100 µM | > 100 µM | > 100 µM | > 100 µM | > 100 µM
CCOc1cc(C2SCC(=O)N2c2ccc(Oc3ccc(Cl)cc3)c(Cl)c2)ccc1O (stereo not drawn) | 34.8 µM | 31.5 µM | 45.8 µM | 36 µM | 41.9 µM | 64.4 µM | 40.8 µM | 38.2 µM | 25.2 µM | 32.7 µM | – | 35.8 µM | 32.6 µM | 39.1 µM | 37.3 µM | 32.5 µM | 31.3 µM | 33.7 µM
O=c1[nH]c(Cc2ccccc2)nc2c1sc1nc3ccccc3n12 | > 100 µM | > 100 µM | > 100 µM | > 100 µM | > 100 µM | > 100 µM | – | > 100 µM | > 100 µM | > 100 µM | > 100 µM | > 100 µM | > 100 µM | > 100 µM | > 100 µM | > 100 µM | > 100 µM | > 100 µM
CC#CC(O)(C(=O)OCCCN(C)C)C1CCCCC1 (stereo not drawn) | > 100 µM | > 100 µM | > 100 µM | > 100 µM | > 100 µM | > 100 µM | > 100 µM | > 100 µM | > 100 µM | > 100 µM | > 100 µM | > 100 µM | – | > 100 µM | > 100 µM | > 100 µM | > 100 µM | > 100 µM
O=C1NC(N2CCOCC2)=N/C1=C\c1ccc(Cl)cc1 | > 100 µM | – | > 100 µM | > 100 µM | > 100 µM | > 100 µM | > 100 µM | > 100 µM | > 100 µM | > 100 µM | > 100 µM | > 100 µM | > 100 µM | – | > 100 µM | > 100 µM | > 100 µM | > 100 µM
